The record followed here is patent publication US20100120789A1, “Compound” (priority 2005, published 2010).

Structures are written as SMILES.

The term melting point denotes the temperature, or range, at which the solid turns liquid. For the compound `Cc1ccc(CNC(=O)CC23CC4CC(CC(C4)C2)C3)cc1`, the melting point fell in the range of 139 to 142 °C. To `Cc1cccc(NC(=O)CS(=O)(=O)C23CC4CC(CC(C4)C2)C3)n1` belongs 126 to 129 °C; to `CNC(=O)c1ccc(CN(C)C(=O)C23CC4CC(CC(C4)C2)C3)s1`, 211 to 211.5 °C; to `Cn1ccnc1[S+]([O-])CC(=O)C12CC3CC(CC(C3)C1)C2` (stereo not drawn) [STX1924, 1-Adamantan-1-yl-2-(1-methyl-1H-imidazole-2-sulfinyl)-ethanone], 86 to 89 °C. To `COc1cc2c(cc1OCc1ccccc1)CCN(C(=O)CC13CC4CC(CC(C4)C1)C3)C2` belongs 133 to 135 °C; to `CC(C)(C)C(=O)NCc1cccs1` [STX1673, 2,2-Dimethyl-N-thiophen-2-ylmethyl-propionamide], 64 to 65 °C; to `CC(=O)Nc1ccc(OCC(=O)C23CC4CC(CC(C4)C2)C3)cc1Cl`, 204 to 206 °C. On to `Cc1c(Cl)cccc1S(=O)(=O)NC12CC3CC(CC(C3)C1)C2` [STX1343, N-Adamantan-1-yl-3-chloro-2-methyl-benzenesulfonamide], for which the melting point was in the range of 197.5 to 198 °C.

With `O=C(O)c1cccc(OCC(=O)C23CC4CC(CC(C4)C2)C3)c1` [STX2361, 3-(2-Adamantan-1-yl-2-oxo-ethoxy)-benzoic acid], the melting point was 156.2 °C.

Take `CSc1ccc(CN(C)C(=O)C23CC4CC(CC(C4)C2)C3)s1`: the melting point was 73 to 75.5 °C. To `O=C(CC12CC3CC(CC(C3)C1)C2)NCc1ccc(-c2ccccn2)s1` belongs 187 to 188 °C.

With `CN(C)C(=O)c1ccc(CN(C)C(=O)C23CC4CC(CC(C4)C2)C3)s1`, the melting point was in the range of 145 to 146 °C. For `O=S(=O)(NC12CC3CC(CC(C3)C1)C2)c1cc(Cl)ccc1Cl` [STX1342, N-Adamantan-1-yl-2,5-dichloro-benzenesulfonamide], the melting point was in the range of 189 to 190 °C.

In turn, `O=C(NCc1cccc([N+](=O)[O-])c1)C12CC3CC(CC(C3)C1)C2` [STX2411, Adamantane-1-carboxylic acid 3-nitro-benzylamide] registered a melting point of 145.5 to 147 °C. To `CN(CCc1cccs1)C(=O)C12CC3CC(CC(C3)C1)C2` [STX1910, Adamantane-1-carboxylic acid methyl-(2-thiophen-2-yl-ethyl)-amide] belongs 95 to 99 °C; to `Cc1nc2c(NC(=O)C34CC5CC(CC(C5)C3)C4)c(C)ccc2s1` [STX1372, Adamantane-1-carboxylic acid (2,5-dimethyl-benzothiazol-4-yl)-amide], 183.5 to 185 °C; to `O=S(=O)(Cc1cn(C23CC4CC(CC(C4)C2)C3)nn1)c1cc(Cl)ccc1Cl`, 198 to 199 °C. To `Cn1ccnc1SCC(=O)C12CC3CC(CC(C3)C1)C2` [STX1898, 1-Adamantan-1-yl-2-(1-methyl-1H-imidazol-2-ylsulfanyl)-ethanone] belongs 65 to 69 °C; to `CN(Cc1ccc(Cl)cc1)C(=O)CC12CC3CC(CC(C3)C1)C2`, 75 to 76 °C. As to `O=C(C[S+]([O-])Cc1cccs1)C12CC3CC(CC(C3)C1)C2` (stereo not drawn) [STX1929, 1-Adamantan-1-yl-2-(thiophen-2-ylmethanesulfinyl)-ethanone], the melting point lay within 95 to 98 °C.

`Cc1cccc(CN(C)C(=O)C23CC4CC(CC(C4)C2)C3)n1` [STX2134, Adamantane-1-carboxylic acid methyl-(6-methyl-pyridin-2-ylmethyl)-amide] came in with a melting point of 76 to 77.5 °C.

For `O=C(CC12CC3CC(CC(C3)C1)C2)NCc1ccc(Cl)cc1`, the melting point lay in the range of 166 to 168 °C.

Compound `Cc1nc2c(Cl)c(NC(=O)C34CC5CC(CC(C5)C3)C4)ccc2s1` [STX1373, Adamantane-1-carboxylic acid (4-chloro-2-methyl-benzothiazol-5-yl)-amide] yielded a melting point of 183.5 to 185.5 °C. To `COc1cc2c(cc1O)CCN(C(=O)C13CC4CC(CC(C4)C1)C3)C2` belongs 224 to 228 °C; to `Cn1ccnc1S(=O)(=O)CC(=O)C12CC3CC(CC(C3)C1)C2` [STX2294, 1-Adamantan-1-yl-2-(1-methyl-1H-imidazole-2-sulfonyl)-ethanone], 124 to 125 °C. To `Cc1ccc(CNC(=O)C2CCN(C(=O)C34CC5CC(CC(C5)C3)C4)CC2)cc1` belongs 155.5 to 157 °C; to `O=C(N1CCc2sccc2C1)C12CC3CC(CC(C3)C1)C2` [STX1721, Adamantan-1-yl-(6,7-dihydro-4H-thieno[3,2-c]pyridin-5-yl)-methanone], 141 to 143 °C; to `CCN(Cc1cccs1)C(=O)C12CC3CC(CC(C3)C1)C2`, 103 to 105 °C. In the case of `O=C(CC12CC3CC(CC(C3)C1)C2)N1CCN(Cc2ccc(Cl)cc2)CC1` [STX2402, 2-Adamantan-1-yl-1-[4-(4-chloro-benzyl)-piperazin-1-yl]-ethanone], the melting point was 119 to 121 °C.

Compound `CN(Cc1ccc(Cl)s1)C(=O)CC12CC3CC(CC(C3)C1)C2` came in with a melting point of 73.5 to 75 °C. To `O=C(C[S+]([O-])Cc1ccco1)C12CC3CC(CC(C3)C1)C2` (stereo not drawn) [STX1908, 1-Adamantan-1-yl-2-(furan-2-ylmethanesulfinyl)-ethanone] belongs 75 to 79 °C; to `Cc1c(C(=O)CSCc2ccc(Cl)cc2)sc2ccc(Cl)cc12`, 123 to 124 °C.

With `Cc1cccc(CN2CCN(C(=O)C34CC5CC(CC(C5)C3)C4)CC2)c1`, the melting point fell in the range of 185 to 187 °C.

Consider `COC(=O)c1cccc(OCC(=O)C23CC4CC(CC(C4)C2)C3)c1`, for which the melting point stood at 84.5 °C. The figure for `CN(Cc1cccs1)C(=O)[C@H]1CC2C=CC1C2` (stereo partly drawn) [STX1709, Bicyclo[2.2.1]hept-5-ene-2-carboxylic acid methyl-thiophen-2-ylmethyl-amide (exo)] is 74 to 75 °C; for `O=S(=O)(NC12CC3CC(CC(C3)C1)C2)c1cccs1` [STX1573, Thiophene-2-sulfonic acid adamantan-1-ylamide] it is 129 to 131 °C. In turn, `O=S(=O)(NCC12CC3CC(CC(C3)C1)C2)c1cc(Cl)ccc1Cl` [STX1369, N-Adamantan-1-ylmethyl-2,5-dichloro-benzenesulfonamide] returned a melting point of 197 to 198 °C.

The compound `COC(=O)c1ccc(COCC(=O)C23CC4CC(CC(C4)C2)C3)cc1` registered a melting point of 88.7 °C. On to `Cc1csc(CN(C)C(=O)C23CC4CC(CC(C4)C2)C3)c1` [STX2254, Adamantane-1-carboxylic acid methyl-(4-methyl-thiophen-2-ylmethyl)-amide], for which the melting point was 87 to 88 °C. As to `CC1(C(=O)NCc2cccs2)CCCCC1` [STX1642, 1-Methyl-cyclohexanecarboxylic acid(thiophen-2-ylmethyl)-amide], the melting point fell in the range of 72 to 73 °C. The figure for `CC(C(=O)NCc1cccs1)(c1ccccc1)c1ccccc1` [STX1640, 2,2-Diphenyl-N-thiophen-2-ylmethyl-propionamide] is 90 to 91 °C; for `CC(=O)Nc1ccc(S(=O)(=O)CC(=O)C23CC4CC(CC(C4)C2)C3)cc1` [STX2298, N-[4-(2-Adamantan-1-yl-2-oxo-ethanesulfonyl)-phenyl]-acetamide] it is 151 to 151.5 °C.
